Assay results: US9018209B2, “Compounds and methods for the treatment of viruses and cancer” (Yale University, priority 2005, dated 2015)
Like-named read-outs stand apart in the source and are kept apart here.

Experiments:
IIIB strain of HIV-1 = assay: Anti-HIV-1 activity: protection of infected MT-2 cells, MTT colorimetric method; type: cell-based; settings: for fold lower potency (higher EC50) than the corresponding DMA ether: Table 2b compounds
MT-2 human T-cells = assay: Cytotoxicity: inhibition of MT-2 cell growth; type: cell-based
From the text: (§1) The preparation of the analogues 4a-h involved the reaction between 2-bromothiazole 1 with the corresponding 5-amino-2-R-phenol 2, followed by reaction with 4-bromo-2-methyl-2-butene in presence of Cs2CO3 as a base (Scheme 1; see Table 1 for antiviral activities (EC50) and cytotoxicities (IC50) of these compounds, as determined using human MT-2 cells infected with IIIB strain of HIV-1).
(§2) See, Ruiz-Caro, supra. and Lin, et al., Biochem. Pharmacol. 1994, 47, 171-174.

[1] = Cytotoxicity: inhibition of MT-2 cell growth; type: cell-based, human; settings: human, MT-2 T-cells; Table 2b; MT-2 cells
From the text: as §1, §2

[2] = Table 2b, derivatives of pyrimidine 11, NA for EC50 > CC50, read-out: EC50
[3] = Human immunodeficiency virus 1, IIIB, MT2, Table 1a, heteroaryl derivatives, N/A read as no activity, read-out: EC50
[4] = Homo sapiens, MT2, Table 1a, cytotoxicity, MT-2 cells, read-out: IC50
[5] = Table 1, compounds 4a-h, human MT-2 cells infected with IIIB strain of HIV-1, N/A read as no activity, read-out: EC50
[6] = Table 1, cytotoxicity, MT-2 cells, read-out: IC50
[7] = Table of bicyclic-heteroaryl phenyl amines, MT-2 cell assays, read-out: EC50
[8] = Table of bicyclic-heteroaryl phenyl amines, cytotoxicity, MT-2 cell assays, read-out: IC50
[9] = Table 1B, for 50% protection in MT-2 cells, triplicate samples, NA for EC50 > CC50, read-out: EC50
[10] = Table 1B, for 50% inhibition of MT-2 cell growth, triplicate samples
[11] = Table 1a, heteroaryl derivatives, N/A read as no activity, read-out: EC50
[12] = Table 1a, cytotoxicity, MT-2 cells, read-out: IC50
[13] = Homo sapiens, MT2, Table of bicyclic-heteroaryl phenyl amines, cytotoxicity, MT-2 cell assays, read-out: IC50

With `C/C=C/COc1cc(Nc2ncccn2)ccc1Cl` [Compound 11a] the “fold lower potency (higher EC50) than the corresponding DMA ether” value (“fold lower potency” for short) (IIIB strain of HIV-1) was “ca. 10 fold”, the EC50 (IIIB strain of HIV-1; [2]) was 2.3 µM and the CC50 (MT-2 human T-cells; Table 2b, MT-2 cells) was 31 µM.

In the case of `CC(C)=CCOc1cc(Nc2nccc(N)n2)ccc1C` [Compound 40b, N^2-(4-Methyl-3-(3-methylbut-2-enyloxy)phenyl)pyrimidin-2,4-diamine], the EC50 (IIIB strain of HIV-1; [3]) is reported as 0.35 µM and the IC50 (MT-2 human T-cells; [4]) is reported as 6.5 µM.

Work on “N-(4-Chloro-3-(cyclopentenyloxy)phenyl)thiazol-2-amine [Compound 20d]” yielded an EC50 (IIIB strain of HIV-1; Table 3, thiazoles 18-23, N/A read as no activity, read-out: EC50) of 5 µM and an IC50 (MT-2 human T-cells; Table 3, cytotoxicity, MT-2 cells, read-out: IC50) of 15 µM.

Work on `COc1ccc(Nc2nccs2)cc1OCC=C(C)C` [Compound 4c, N-(4-methoxy-3-(3-methylbut-2-enyloxy)phenylthiazol)-2-amine] yielded an EC50 (IIIB strain of HIV-1; [5]) of 3.8 µM and an IC50 (MT-2 human T-cells; [6]) of 42 µM.

`CC(C)=CCOc1cc(Nc2nccc3ccoc23)ccc1Cl` [furopyridine 56a] showed an EC50 (IIIB strain of HIV-1; [7]) of 0.08 µM and an IC50 (MT-2 human T-cells; [8]) of 21 µM.

Compound `Cc1nccc(C(F)(F)F)n1` [Compound 49] has an EC50 (IIIB strain of HIV-1; [3]) of 0.065 µM and an IC50 (MT-2 human T-cells; [4]) of 2.5 µM.

For `CSc1ccnc(Nc2ccc(Cl)c(OCC=C(C)C)c2)n1` [Compound 9i], the EC50 (IIIB strain of HIV-1; [9]) was 0.018 µM and the CC50 (MT-2 human T-cells; [10]) was 2.8 µM.

Compound `COc1nc(N)nc(Nc2ccc(C#N)c(OCC=C(C)C)c2)n1` [Compound 8j] has an EC50 (IIIB strain of HIV-1; [9]) of 0.009 µM and a CC50 (MT-2 human T-cells; [10]) of 0.11 µM.

For `C/C=C/COc1cc(Nc2nccc(OC)n2)ccc1Cl` [Compound 11c], the “fold lower potency” value (IIIB strain of HIV-1) was “ca. 10 fold”, the EC50 (IIIB strain of HIV-1; [2]) was 0.089 µM and the CC50 (MT-2 human T-cells; Table 2b, MT-2 cells) was 17 µM.

For `CC(C)=CCOc1cc(Nc2nccs2)ccc1Cl` [Compound 4d, N-(4-chloro-3-(3-methylbut-2-enyloxy)phenylthiazol)-2-amine], the EC50 (IIIB strain of HIV-1; [5]) was 0.3 µM, the EC50 (IIIB strain of HIV-1; [11]) was 0.3 µM and the IC50 (MT-2 human T-cells; [6]) was 26 µM. For the same compound, the IC50 (MT-2 human T-cells; [12]) was 26 µM.

`CCc1ccnc(Nc2ccc(Cl)c(OCC=C(C)C)c2)n1` [Compound 9p] showed an EC50 (IIIB strain of HIV-1; [9]) of 0.016 µM and a CC50 (MT-2 human T-cells; [10]) of 0.33 µM.

`CNc1ccnc(Nc2ccc(Cl)c(OCC=C(C)C)c2)n1` [Compound 9d] showed an EC50 (IIIB strain of HIV-1; [9]) of 0.006 µM and a CC50 (MT-2 human T-cells; [10]) of 0.69 µM.

`COc1ncnc(Nc2ccc(Cl)c(OCC=C(C)C)c2)n1` [Compound 7b] gave an EC50 (IIIB strain of HIV-1; [9]) of 0.031 µM and a CC50 (MT-2 human T-cells; [10]) of 18 µM.

For `CC(C)=CCOc1cc(Nc2nccc3ccoc23)ccc1C#N` [furopyridine 56b], the EC50 (IIIB strain of HIV-1; [7]) was 0.011 µM and the IC50 (MT-2 human T-cells; [8]) was 0.091 µM.

In the case of `CC(C)=CCOc1cc(Nc2ncccn2)ccc1Cl` [Compound 39d, N-(4-Chloro-3-(3-methylbut-2-enyloxy)phenyl)pyrimidin-2-amine], the EC50 (IIIB strain of HIV-1; [3]) is reported as 0.2 µM, the IC50 (MT-2 human T-cells; [4]) is reported as 2.5 µM and the IC50 (MT-2 human T-cells; Homo sapiens, MT2, Table 2a, cytotoxicity, MT-2 cells, read-out: IC50) is reported as < 0.2 µM. For the same compound, the CC50 [1] was 2.5 µM.

With `CC(C)=CCOc1cc(Nc2nccc(N)n2)ccc1Cl` [Compound 40d, N^2-(4-Chloro-3-(3-methylbut-2-enyloxy)phenyl)pyrimidin-2,4-diamine] the EC50 (IIIB strain of HIV-1; [3]) was 0.075 µM and the IC50 (MT-2 human T-cells; [4]) was > 1 µM.

For `CCc1ccc(Nc2nccs2)cc1OCC=C(C)C` [Compound 4e, N-(4-ethyl-3-(3-methylbut-2-enyloxy)phenylthiazol)-2-amine], the EC50 (IIIB strain of HIV-1; [5]) was 5 µM and the IC50 (MT-2 human T-cells; [6]) was 31 µM.

For `CC(C)=CCOc1cc(Nc2nccs2)ccc1C` [Compound 4b, N-(4-methyl-3-(3-methylbut-2-enyloxy)phenylthiazol)-2-amine], the EC50 (IIIB strain of HIV-1; [5]) was 3 µM, the EC50 (IIIB strain of HIV-1; [11]) was 3 µM and the IC50 (MT-2 human T-cells; [6]) was 17 µM. The IC50 (MT-2 human T-cells; [12]) was 17 µM.

Work on `CSc1ncnc(Nc2ccc(C#N)c(OCC=C(C)C)c2)n1` [Compound 8i] yielded an EC50 (IIIB strain of HIV-1; [9]) of 0.005 µM and a CC50 (MT-2 human T-cells; [10]) of 8.4 µM.

Compound `COc1nc(Nc2ccc(Cl)c(OCC=C(C)C)c2)nc(OC)n1` [Compound 7h] has an EC50 (IIIB strain of HIV-1; [9]) of 0.29 µM and a CC50 (MT-2 human T-cells; [10]) of 20 µM.

`CC(C)=CCOc1cc(Nc2nccc3cc[nH]c23)ccc1Cl` [compound 58] gave an EC50 (IIIB strain of HIV-1; Human immunodeficiency virus 1, IIIB, MT2, Table of bicyclic-heteroaryl phenyl amines, MT-2 cell assays, read-out: EC50) of 0.9 µM and an IC50 (MT-2 human T-cells; [13]) of 9.2 µM.

For `COc1nc(Nc2ccc(C#N)c(OCC=C(C)C)c2)nc(OC)n1` [Compound 8h], the EC50 (IIIB strain of HIV-1; [9]) was 0.022 µM and the CC50 (MT-2 human T-cells; [10]) was > 100 µM.

Work on `COc1nc(C)nc(Nc2ccc(Cl)c(OCC=C(C)C)c2)n1` [Compound 7g] yielded an EC50 (IIIB strain of HIV-1; [9]) of 0.1 µM and a CC50 (MT-2 human T-cells; [10]) of 12 µM.

For `CC(C)=CCOc1cc(Nc2nccs2)ccc1C#N` [Compound 4h, N-(4-cyano-3-(3-methylbut-2-enyloxy)phenylthiazol)-2-amine], the EC50 (IIIB strain of HIV-1; [5]) was 0.21 µM, the EC50 (IIIB strain of HIV-1; [11]) was 0.21 µM and the IC50 (MT-2 human T-cells; [6]) was 0.75 µM. The IC50 (MT-2 human T-cells; [12]) was 0.75 µM.

In the case of `O=C1Nc2ccc(Cl)cc2[C@@](C#CC2CC2)(C(F)(F)F)O1` [Efavirenz, efavirenz, reference compound], the EC50 (IIIB strain of HIV-1; Human immunodeficiency virus 1, IIIB, MT2, read-out: EC50) is reported as 0.002 µM, the IC50 (MT-2 human T-cells; [13]) is reported as > 0.1 µM and the CC50 (MT-2 human T-cells; [10]) is reported as > 0.1 µM.

In the case of `COc1ccnc(Nc2ccc(Cl)c(Oc3ccccc3)c2)n1` [Compound 11d], the “fold lower potency” value (IIIB strain of HIV-1) is reported as “ca. 100 fold”, the EC50 (IIIB strain of HIV-1; [2]) is reported as 2.5 µM and the CC50 (MT-2 human T-cells; Table 2b, MT-2 cells) is reported as 38 µM.

`COc1ccnc(Nc2ccc(Cl)c(OCC=C(C)C)c2)n1` [Compound 42d, N-(4-Chloro-3-(3-methylbut-2-enyloxy)phenyl)-4-methoxypyrimidin-2-amine] showed an EC50 (IIIB strain of HIV-1; [3]) of 0.01 µM and an IC50 (MT-2 human T-cells; [4]) of 9 µM.

With `Clc1ccc(Nc2ncccn2)cc1Oc1ccccc1` [Compound 11b] the “fold lower potency” value (IIIB strain of HIV-1) was “ca. 100 fold”, the EC50 (IIIB strain of HIV-1; [2]) was 13 µM and the CC50 (MT-2 human T-cells; Table 2b, MT-2 cells) was 30 µM.

With `CC(C)=CCOc1cc(Nc2nccc3ccccc23)ccc1C#N` [isoquinoline 62b] the EC50 (IIIB strain of HIV-1; [7]) was 0.003 µM and the IC50 (MT-2 human T-cells; [8]) was 4.4 µM.

In the case of `CC(C)=CCOc1cc(Nc2ncccn2)ccc1C` [Compound 39b, N-(4-Methyl-3-(3-methylbut-2-enyloxy)phenyl)pyrimidin-2-amine], the EC50 (IIIB strain of HIV-1; [3]) is reported as 2.8 µM and the IC50 (MT-2 human T-cells; [4]) is reported as 78 µM.

For `CC(C)=CCOc1cc(Nc2nccs2)ccc1C(C)C` [Compound 4g, N-(4-isopropyl-3-(3-methylbut-2-enyloxy)phenylthiazol)-2-amine], the EC50 (IIIB strain of HIV-1; [5]) was 23 µM and the IC50 (MT-2 human T-cells; [6]) was 23 µM.

Compound `CNc1ncnc(Nc2ccc(Cl)c(OCC=C(C)C)c2)n1` [Compound 7d] has an EC50 (IIIB strain of HIV-1; [9]) of 0.031 µM and a CC50 (MT-2 human T-cells; [10]) of 3.1 µM.

In the case of `CC(C)=CCOc1cc(Nc2nc(CO)cs2)ccc1C` [Compound 10b, (2-(4-Methyl-3-(3-methylbut-2-enyloxy)phenylamino)thiazol-4-yl)methanol], the EC50 (IIIB strain of HIV-1; Human immunodeficiency virus 1, IIIB, MT2) is reported as 13 µM and the IC50 (MT-2 human T-cells; Homo sapiens, MT2) is reported as 23 µM.
